Holding throughout (type): in vivo
Assay [1] has as its system BALB/c (H-2d) mice. In words: Serum β-gal-specific IgG ELISA after i.n. or s.c. immunization with β-gal plus adjuvant. Conditions: i.n., β-gal 30 μg/dose with or without adjuvant 10 μg; end point titers (FIG. 11; FIG. 2). The procedure: Experimental protocol: six-eight weeks-old female BALB/c (H-2d) mice were purchased from Harlan Winkelmann GmbH (Borchen, Germany) and treated in accordance with local and European Community guidelines. Groups of 5 mice each were immunized on day 1, 14 and 28 with 30 μg of β-gal (Boehringer, Mannheim, Germany), alone or as an admixture with 10 μg c-diGMP or with 10 μpg c-diAMP. For intranasal (i.n.) immunization, 10 μl were applied to each naris, whereas for the s.c. injection β-gal with or without c-diGMP or c-diAMP was resuspended in a volume of 20 μl PBS per animal. Serum samples were collected at day 38 after immunization and stored at −20° C. prior to determination of β-gal-specific antibodies. 96-well Nunc-Immuno MaxiSorp assay plates (Nunc, Roskilde, Denmark) were coated with 100 μl of β-gal (Boehringer, Mannheim, Germany) at 5 μg/ml in 0.05 M carbonate buffer (pH 8.2) per well. Serial two-fold dilutions of sera in PBS with 1% BSA and 0.05% Tween 20 were added (100 μl/well), and plates incubated for 16h at 37° C. After washing, biotinylated γ-chain-specific goat anti-mouse IgG (Sigma Chemie, Deisenhofen, Germany) was added, and plates were incubated for an additional 1 h at 37° C. After four washes, 100 μl of peroxidase-conjugated streptavidin (Pharmingen) was added to cells and plates incubated at 37° C. for 30 min. After four washes, reactions were developed with ABTS in 0.1 M citrate-phosphate buffer (pH 4.35) containing 0.01% H2O2. Results for c-diGMP are shown as OD405 values after serial two-fold dilutions (FIG. 2). […] The effect of c-diGMP as an adjuvant was independent of the route of administration.
In contrast, in the presence of c-diAMP, i.n. administration of β-gal induced very high titers of specific IgG in all mice with titers higher than 500,000 (FIG. 11).
In view of the above in vitro results, additional in vivo studies have been conducted. […] Thus, the capacity of c-diGMP and c-diAMP, respectively, to stimulate efficient humoral immune responses was evaluated, by determining the serum titers of β-gal-specific antibodies in vaccinated mice.
In general terms: An ELISA detects its analyte on a solid surface through an enzyme-linked reagent.

The test system of assay [2] is BALB/c (H-2d) mice. In words: β-gal-specific IgA in lung and vaginal lavages of immunized mice. The note with it: i.n. immunization, day 38, versus β-gal alone (FIG. 4, FIG. 5). The procedure:
Experimental protocol: at day 38, mice were sacrificed and the final sampling was performed. Vaginal and lung lavages were obtained by flushing the organs with 1 ml of PBS supplemented with 50 mM EDTA, 0.1% BSA, and 10 mM PMSF. Lavages were then centrifuged to remove debris (10 min at 3000×g), and supernatant fluids were stored at −20° C. To determine the concentration of total IgA present in the lung and vaginal lavages, serial dilutions of the corresponding samples were incubated in microtiter plates that were previously coated with goat anti-mouse IgA (Sigma Chemie), as capture antibodies (100 μl/well). Serial dilutions of purified mouse IgA (Sigma Chemie) were used to generate a standard curve.
To investigate the capacity of c-diGMP and c-diAMP, respectively, to stimulate mucosal responses against antigens co-administered by the i.n. and s.c. route, the production of β-gal-specific IgA in lung was analyzed (FIG. 5 for c-diAMP and FIG. 4 for c-diGMP) from immunized animals, immunized according to the protocol described in Example 2.

Assay [3] has as its system spleen cells. The experiment in a line: [3H]thymidine proliferation of spleen cells from vaccinated mice restimulated in vitro with β-gal. Conditions: day 38, in vitro restimulation with β-gal. As for the experimental part: Experimental protocol: Spleens were removed and pooled for analysis of cellular immune responses. Cells were grown in RPMI 1640 supplemented with 10% fetal calf serum, 100 U/ml of penicillin, 50 μg/ml of streptomycin, 5×10^−5 M 2-mercaptoethanol and 1 mM L-glutamine (GIBCO BRL, Karlsruhe, Germany) and maintained at 37° C. in a humidified 5% CO2 atmosphere. Spleen cell suspensions were adjusted to 5×10^6 cells/ml in complete medium, cells were seeded with 100 μl per well in a flat-bottomed 96-well microtiter plate (Nunc) and plates were incubated for 4 days in the presence of different concentrations of soluble β-gal. That is, T cell mediated immune responses were investigated at day 38 by measuring the proliferation after in vitro restimulation with β-Gal of cells which have been recovered from spleens before. Said spleen cells were obtained from vaccinated mice—said mice where immunized as described in Example 2—and incubated in the presence of different concentrations of the soluble β-Gal antigen. Each concentration was tested in quadruplicates. During the final 18 h of culture, 1 μCi of [3H]thymidine (Amersham International, Freiburg, Germany) was added to each well. Cells were then harvested on paper filters (Filtermat A; Wallac, Freiburg, Germany) by using a cell harvester (Inotech, Wohlen, Switzerland), and the amount of incorporated [3H]thymidine into the DNA of proliferating cells was determined by a β-scintillation counter (Wallac 1450, Micro-Trilux). The results are expressed as the arithmetic mean of [^3H]thymidine uptake in cpm.
Thirty eight days following vaccination, spleens cells were purified, re-stimulated in vitro in the presence of various amounts of β-galactosidase and their proliferative capacity was estimated by measuring the incorporation of [3H]thymidine into their DNA using a β-scintillation counter.

The test system of assay [4] is spleen cells. In words: ELISPOT of cytokine producing spleen cells from vaccinated mice. The note with it: i.n.; restimulation with CD8 epitope peptide (FIG. 10). The procedure:
Experimental protocol: Spleens from vaccinated mice were removed and pooled for analysis of cellular immune responses. The protocol for vaccination was identical to the protocol described in Example 2. Cells were grown in RPMI 1640 supplemented with 10% fetal calf serum, 100 U/ml of penicillin, 50 μg/ml of streptomycin, 5×10^−5 M 2-mercaptoethanol and 1 mM L-glutamine (GIBCO BRL, Karlsruhe, Germany) and maintained at 37° C. in a humidified 5% CO2 atmosphere. […]
For coating ELISPOT plates, said plates were incubated with 100 μl/well of purified capture antibody (10 μg/ml in coating buffer) at 4° C. overnight. After 6× washing steps, the plates were blocked with 200 μl/well of complete RPMI-1640 at room temperature for 1 hour. The activated cells were seeded at 100 μl per well and incubate at 37° C., in a 5% CO2 humidified incubator for 24 hours or 48h hours. After 5× washing steps with washing buffer and 1× step with distilled water, 100 μl/well of the biotinylated detection antibody with a concentration of 1 μg/ml in Assay Diluent was added and incubated at room temperature for 2 hrs. After further washing steps 100 μl/well of the AV-HRP at 1/1000 dilution in Assay Diluent was added and incubated at room temperature for 30 minutes. After further washing steps 100 μl/well of AEC Substrate Solution was added and developed at room temperature for 10-60 minutes until visible spots appeared. After washing steps with (3×) with 200 μl/well distilled water, the plates were air-dried and analyzed by counting the spots by an ELISPOT reader. Each concentration was tested in triplicates.

Regarding “β-gal: soluble model antigen β-galactosidase (Boehringer), given alone as comparator without adjuvant”, the “β-gal specific IgG titer in sera, i.n. administration” value in the assay on BALB/c (H-2d) mice [1] is given as “very low antibody titers”. For the same substance, the “β-gal-specific IgA in lung lavages” value in the assay with BALB/c (H-2d) mice [2] is recorded as “weak production”. In addition, the “proliferation of spleen cells, i.n. immunization” value with spleen cells [3] (i.n., low amounts of antigen (FIG. 6)) is “failed to induce detectable cellular proliferation”. In the assay with spleen cells [3] (s.c., [3H]thymidine (FIG. 6)), the “proliferation of spleen cells, s.c. immunization” value is “significant proliferative response”. Moreover, the “IFNγ producing cells, i.n. vaccination” value in the assay with spleen cells [4] is “scarcely detectable”.

The values above are taken from US9597391B2, “Cyclic-dinucleotides and its conjugates as adjuvants and their uses in pharmaceutical compositions” (HELMHOLTZ_ZENTRUM FUER INFEKTIONSFORSCHUNG GMBH, priority 2005, dated 2017).
